Values of other authors as cited in US7998503B2, “Form of administration for controlling primary headaches” (LTS Lohmann Therapie-Systeme AG, priority 2003, dated 2011).

Conditions: nasally administered, literature report

For `CCN(CC)CC(=O)Nc1c(C)cccc1C` [lidocaine], the “effect on migraine pain after nasal administration” value (e.g. sprays) is given as “fast decline in migraine pain” and the “renewed appearance of the pain after administration” value (shortly after administration) is given as “recurrence, meaning renewed appearance of the pain, was found shortly after administration”.
